Results published in patent US11559575B2, “Multi-epitopic peptide compounds and vaccines against leishmaniasis” (INSTITUT DE RECHERCHE POUR LE DEVELOPPEMENT, priority 2018, dated 2023).
“Also recorded” adds a separate entry of the source.

The sequences below were run on HLA alleles of class I (assay: Affinity of epitopes for HLA alleles of class I). Conditions: H2B-1 epitopes, Table 1.
Format: binding, human
Description: The multiepitopic peptide compounds (24 to 40-mer), having a high affinity with a maximized number of HLA molecules of class I and of class II, such as the affinities for the alleles HLA of class I and HLA of class II of the epitopes in the peptides of the sequences SEQ ID NO: 22, 23, 65, 66, 69, 73, 77, 96, 97, 137, 138, and 157, 185, have a high immunoprevalent potential corresponding to an optimal vaccine coverage, in particular for the populations concerned. The degree of coverage of the peptide compounds of the invention show a very high added value compared with the peptides of the prior art.

Sequence | Affinity for the HLA alleles of class I
MSMSHRTMK (Leishmania major) [SEQ ID NO: 12] | HLA-A*11:01,; also recorded: HLA-A*31:01,; also recorded: HLA-A*03:01,; also recorded: HLA-A*68:01,; also recorded: HLA-A*30:01,; also recorded: HLA-A*33:01
IKAINAQMSM (Leishmania major) [SEQ ID NO: 2] | HLA-B*57:01; also recorded: HLA-B*15:01,
KAINAQMSMM (Leishmania major) [SEQ ID NO: 4] | HLA-B*58:01,; also recorded: HLA-B*57:01,; also recorded: HLA-B*15:01
NAQMSMMER (Leishmania major) [SEQ ID NO: 14] | HLA-A*68:01,; also recorded: HLA-A*33:01,; also recorded: HLA-A*31:01
MSHRTMKIKA (Leishmania major) [SEQ ID NO: 9] | HLA-A*30:01
MSHRTMKSM (Leishmania major) [SEQ ID NO: 10] | HLA-B*57:01,; also recorded: HLA-A*30:01,; also recorded: HLA-B*15:01
AINAQMSMM (Leishmania major) [SEQ ID NO: 1] | HLA-B*15:01
SMSHRTMK (Leishmania major) [SEQ ID NO: 15] | HLA-A*03:01
MSMSHRTM (Leishmania major) [SEQ ID NO: 11] | HLA-B*08:01
MERICTEAA (Leishmania major) [SEQ ID NO: 6] | HLA-B*40:02,; also recorded: HLA-B*45

Same assay, conditions: H2B-II core epitopes, Table 1

Sequence | Affinity HLA alleles of class I
NVYVGRSLK (Leishmania major) [SEQ ID NO: 47] | HLA-A*03:01

Same assay, conditions: LmLRAB (IA, IB, IC) epitopes, Table 2

Sequence | Concatenation affinity for HLA allele of class I
RLPENAFVI (Leishmania major) [SEQ ID NO: 71] | HLA-A*32:01,; also recorded: HLA-A*02:06,; also recorded: HLA-A*02:11,; also recorded: HLA-A*02:12,; also recorded: HLA-A*02:16,; also recorded: HLA-A*02:19
RFAQGEHDI (Leishmania major) [SEQ ID NO: 70] | HLA-A*2403
KTKQHLREM (Leishmania major) [SEQ ID NO: 68] | HLA-A*30:01,; also recorded: HLA-A*2602
NENNITGGL (MENNITGGL; Leishmania major) [SEQ ID NO: 67] | HLA-B*40:02,; also recorded: HLA-B*44:02,; also recorded: HLA-B*44:03; also recorded: HLA-B*18:01,; also recorded: HLA-B*40:01,
TQGSSKAGF (Leishmania major) [SEQ ID NO: 72] | HLA-B*15:01,; also recorded: HLA-B*15:02

The sequences below were run on HLA supertypes of class I (assay: Affinity of epitopes for HLA supertypes of class I). Conditions: H2B-1 epitopes, Table 1.
Format: binding, human
Description: HLA molecules are highly polymorphous. This is because there exist more than 2500 HLA proteins of class I (HLA-I) and more than 1000 HLA proteins of class II (HLA-II). However, some of these HLA molecules, close in sequence and in spatial conformation, may have epitopes common to the T cells. The grouping of several thousands of HLA molecules is at the present time described in a little more than 20 or so categories, referred to as “HLA supertypes” having epitopes that are very well preserved for each supertype.

Sequence | Affinity for the HLA supertypes of class I
MSMSHRTMK (Leishmania major) [SEQ ID NO: 12] | HLA-A*01/HLA-; also recorded: A*03, HLA-A*03
IKAINAQMSM (Leishmania major) [SEQ ID NO: 2] | HLA-B*62; also recorded: HLA-B*58,
KAINAQMSMM (Leishmania major) [SEQ ID NO: 4] | HLA-B*58,; also recorded: HLA-B*62
NAQMSMMER (Leishmania major) [SEQ ID NO: 14] | HLA-A*03
MSHRTMKIKA (Leishmania major) [SEQ ID NO: 9] | HLA-A*01/HLA-A*03
MSHRTMKSM (Leishmania major) [SEQ ID NO: 10] | HLA-A*01/HLA-A*03,; also recorded: HLA-B*58,; also recorded: HLA-B*62
AINAQMSMM (Leishmania major) [SEQ ID NO: 1] | HLA-B*62
SMSHRTMK (Leishmania major) [SEQ ID NO: 15] | HLA-A*03
MSMSHRTM (Leishmania major) [SEQ ID NO: 11] | HLA-B*08
MERICTEAA (Leishmania major) [SEQ ID NO: 6] | HLA-B*44

Same assay, conditions: H2B-II core epitopes, Table 1

Sequence | Affinity HLA supertype allele of class I
NVYVGRSLK (Leishmania major) [SEQ ID NO: 47] | HLA-A*03

Same assay, conditions: LmLRAB (IA, IB, IC) epitopes, Table 2

Sequence | Affinity for HLA supertypes of class I
RLPENAFVI (Leishmania major) [SEQ ID NO: 71] | HLA-A*01,; also recorded: HLA-A*02
RFAQGEHDI (Leishmania major) [SEQ ID NO: 70] | HLA-A*24
KTKQHLREM (Leishmania major) [SEQ ID NO: 68] | HLA-A*01/HLA-A*03,
NENNITGGL (MENNITGGL; Leishmania major) [SEQ ID NO: 67] | HLA-B*44
TQGSSKAGF (Leishmania major) [SEQ ID NO: 72] | HLA-B*27,; also recorded: HLA-B*62

The sequences below were run on HLA alleles of class II (assay: Affinity of epitopes for HLA alleles of class II). Conditions: H2B-1 epitopes, Table 1.
Format: binding, human

Sequence | Affinity for the HLA alleles of class II
MSMSHRTMK (Leishmania major) [SEQ ID NO: 12] | DRB1*03:01,; also recorded: DRB1*09:01,; also recorded: DRB1*11:01

Same assay, conditions: H2B-II core epitopes, Table 1

Sequence | Affinity HLA alleles of class II
NVYVGRSLK (Leishmania major) [SEQ ID NO: 47] | HLA-DRB5*01:01
